Reference: patent US20140303092A1 (CHIMERIX, INC., priority 2011, published 2014)

Assay: Study HDP-CDV-201: safety and tolerability (adverse events, laboratory abnormalities, discontinuations)
Assay type: in vivo, human (adult allogeneic HSCT recipients)
Protocol: Clinical Studies of HDP-CDV were performed and described in detail in the following Examples. For example, HDP-CDV-201 is a placebo-controlled, dose-escalating trial in HSCT CMV (R+) recipients, evaluating the ability of HDP-CDV to prevent or control CMV infection was carried out. Five cohorts were established in which participants or subjects received either placebo or the HDP-CDV orally, in doses ranging from 40 mg weekly (QW) to 200 mg twice weekly (BIW). Subjects who were post-HSCT were enrolled at the time of engraftment and randomized to HDP-CDV or placebo (3 to 1 ratio) and received blinded therapy until approximately 100 day post-transplantation. HDP-CDV doses were 40 mg QW, 100 mg QW, 200 mg QW, 200 mg BIW and 100 mg BIW. Escalation to the next dose was decided by the data monitoring committee after review of the safety data from the previous Cohort. Subjects who developed CMV disease or CMV infection requiring pre-emptive therapy with local standard of care were discontinued from blinded therapy and followed for 4 weeks. Subjects who completed treatment with blinded therapy were followed for 8 weeks post-therapy.
Data from Study HDP-CDV-201 also provided characterization of the safety and tolerability profile of HDP-CDV when administered for the prevention or control of CMV infection in high risk (R^+) post-HSCT adult subjects.
The Safety population (SAFETY) included all randomized subjects who took at least one dose of study treatment. This population was used to summarize safety outcomes based on the treatment actually received, in cases where a subject was treated contrary to the randomization schedule.
The safety and tolerability profile of HDP-CDV, including subject demographics and Baseline characteristics; the AE profile; and laboratory abnormalities of interest were analyzed in the cohorts followed in this investigation.
Subjects completing the treatment period received a full course of study medication; those completing the entire study attended visits through 8 weeks of follow up. Subjects who discontinued treatment may have done so for protocol specified reasons (e.g. development of clinically significant CMV infection requiring preemptive treatment with excluded anti-CMV medications) or for other reasons (e.g., withdrawal, adverse events, loss to follow-up). The disposition of subjects in Study HDP-CDV-201 during the double-blind, placebo-controlled treatment period (through Week 11) is listed by dosing Cohort in TABLE 23.
Adverse events were examined by severity to ensure that all safety signals were identified in this study population. Because of the frequency of events in HSCT recipients, particular attention was given to evaluation of Grade 3 […], 4 (severe), and 5 (fatal) adverse events.
Only those preferred terms for which at least one Grade 3 or higher event was experienced in any treatment group are listed. Cytomegalovirus-related AEs are excluded from this analysis.
HDP-CDV is a lipid conjugate of CDV. Because CDV is known to have adverse effects on renal function and bone marrow, decreased GFR and persistent neutropenia were identified as AEs of special interest. Key renal and hematological (TABLE 30) laboratory parameters were measured and listed below by Study HDP-CDV-201 treatment groups. TABLE 30 includes abnormal levels of serum creatinine, neutrophils, platelets, WBCs, and hemoglobin and includes data at Screening and during the treatment period.
A common metric for unit based dosing of medications is by weight (mg/kg). When the distribution of weights was examined for all subjects participating in the study, the median was 78 kg and the lower 25th percentile weight was approximately 65 kg, which translates to a cut-off of ˜3 mg/kg for a 200 mg total weekly dose. Based upon this approach, a cut-off of 3 mg/kg was used to assess the frequency of diarrhea and associated GI AEs reported for the subjects in Cohorts 3 or 4a (TABLE 40).

SMILES: CCCCCCCCCCCCCCCCOCCCOP(=O)(O)COC(CO)Cn1ccc(N)nc1=O (stereo not drawn) [HDP-CDV]
- TEAE Staphylococcal Bacteremia, Grade 4 (200 mg BIW): 0
- TEAE Staphylococcal Bacteremia, Grade 5 (200 mg BIW): 0
- TEAE Thrombocytopenia, Frequency (200 mg BIW): 5 (16.7%)
- TEAE Thrombocytopenia, Grade 2 (200 mg BIW): 2 (6.7%)
- TEAE Thrombocytopenia, Grade 3 (200 mg BIW): 0
- TEAE Thrombocytopenia, Grade 4 (200 mg BIW): 3 (10.0%)
- TEAE Thrombocytopenia, Grade 5 (200 mg BIW): 0
- TEAE Vomiting, Frequency (200 mg BIW): 8 (26.7%)
- TEAE Vomiting, Grade 2 (200 mg BIW): 4 (13.3%)
- TEAE Vomiting, Grade 3 (200 mg BIW): 0
- TEAE Vomiting, Grade 4 (200 mg BIW): 0
- TEAE Vomiting, Grade 5 (200 mg BIW): 0
- subjects requiring treatment with steroids during the study (200 mg BIW): 83%
- proportion of subjects with Grade 3 or higher ALT (>5×ULN) (200 mg BIW (8 of 30)): 27.6%
- dose limiting toxicity (200 mg BIW not tolerable): Diarrhea
- Subjects Reporting Diarrhea as an AE (200 mg BIW, n = 30): 21 (70.0%)
- Discontinuation: Death (200 mg BIW, active treatment period): 3 (10%) Subject n (%)
- Discontinuation: Adverse event (200 mg BIW, active treatment period through Week 11): 13 (43.3%) Subject n (%)
- TEAE ALT increased, Frequency (200 mg QW): 2 (5.1%)
- TEAE ALT increased, Grade 2 (200 mg QW): 1 (2.6%)
- TEAE ALT increased, Grade 3 (200 mg QW): 1 (2.6%)
- TEAE ALT increased, Grade 4 (200 mg QW): 0
- TEAE ALT increased, Grade 5 (200 mg QW): 0
- TEAE AML, Recurrent, Frequency (200 mg QW): 0
- TEAE AML, Recurrent, Grade 2 (200 mg QW): 0
- TEAE AML, Recurrent, Grade 3 (200 mg QW): 0
- TEAE AML, Recurrent, Grade 4 (200 mg QW): 0
- TEAE AML, Recurrent, Grade 5 (200 mg QW): 0
- TEAE AST increased, Frequency (200 mg QW): 1 (2.6%)
- TEAE AST increased, Grade 2 (200 mg QW): 1 (2.6%)
- TEAE AST increased, Grade 3 (200 mg QW): 0
- TEAE AST increased, Grade 4 (200 mg QW): 0
- TEAE AST increased, Grade 5 (200 mg QW): 0
- TEAE Abdominal pain, Frequency (200 mg QW): 5 (12.8%)
- TEAE Abdominal pain, Grade 2 (200 mg QW): 1 (2.6%)
- TEAE Abdominal pain, Grade 3 (200 mg QW): 1 (2.6%)
- TEAE Abdominal pain, Grade 4 (200 mg QW): 0
- TEAE Abdominal pain, Grade 5 (200 mg QW): 0
- TEAE Acute GVHD, Frequency (200 mg QW): 13 (33.3%)
- TEAE Acute GVHD, Grade 2 (200 mg QW): 5 (12.8%)
- TEAE Acute GVHD, Grade 3 (200 mg QW): 4 (10.3%)
- TEAE Acute GVHD, Grade 4 (200 mg QW): 2 (5.1%)
- TEAE Acute GVHD, Grade 5 (200 mg QW): 1(2.6%)
- TEAE Arthralgias, Frequency (200 mg QW): 1 (2.6%)
- TEAE Arthralgias, Grade 2 (200 mg QW): 0
- TEAE Arthralgias, Grade 3 (200 mg QW): 0
- TEAE Arthralgias, Grade 4 (200 mg QW): 0
- TEAE Arthralgias, Grade 5 (200 mg QW): 0
- TEAE Back Pain, Frequency (200 mg QW): 2 (5.1%)
- TEAE Back Pain, Grade 2 (200 mg QW): 2 (5.1%)
- TEAE Back Pain, Grade 3 (200 mg QW): 0
- TEAE Back Pain, Grade 4 (200 mg QW): 0
- TEAE Back Pain, Grade 5 (200 mg QW): 0
- TEAE Decreased appetite, Frequency (200 mg QW): 3 (7.7%)
- TEAE Decreased appetite, Grade 2 (200 mg QW): 1 (2.6%)
- TEAE Decreased appetite, Grade 3 (200 mg QW): 0
- TEAE Decreased appetite, Grade 4 (200 mg QW): 0
- TEAE Decreased appetite, Grade 5 (200 mg QW): 0
- TEAE Diarrhea, Frequency (200 mg QW): 13 (33.3%)
- TEAE Diarrhea, Grade 2 (200 mg QW): 5 (12.8%)
- TEAE Diarrhea, Grade 3 (200 mg QW): 2 (5.1%)
- TEAE Diarrhea, Grade 4 (200 mg QW): 0
- TEAE Diarrhea, Grade 5 (200 mg QW): 0
- TEAE Fatigue, Frequency (200 mg QW): 5 (12.8%)
- TEAE Fatigue, Grade 2 (200 mg QW): 0
- TEAE Fatigue, Grade 3 (200 mg QW): 1 (2.6%)
- TEAE Fatigue, Grade 4 (200 mg QW): 0
- TEAE Fatigue, Grade 5 (200 mg QW): 0
- TEAE GGT Increased, Frequency (200 mg QW): 0
- TEAE GGT Increased, Grade 2 (200 mg QW): 0
- TEAE GGT Increased, Grade 3 (200 mg QW): 0
- TEAE GGT Increased, Grade 4 (200 mg QW): 0
- TEAE GGT Increased, Grade 5 (200 mg QW): 0
- TEAE Generalized oedema, Frequency (200 mg QW): 0
- TEAE Generalized oedema, Grade 2 (200 mg QW): 0
- TEAE Generalized oedema, Grade 3 (200 mg QW): 0
- TEAE Generalized oedema, Grade 4 (200 mg QW): 0
- TEAE Generalized oedema, Grade 5 (200 mg QW): 0
- TEAE Hyperbilirubinaemia, Frequency (200 mg QW): 3 (7.7%)
- TEAE Hyperbilirubinaemia, Grade 2 (200 mg QW): 1 (2.6%)
- TEAE Hyperbilirubinaemia, Grade 3 (200 mg QW): 0
- TEAE Hyperbilirubinaemia, Grade 4 (200 mg QW): 1 (2.6%)
- TEAE Hyperbilirubinaemia, Grade 5 (200 mg QW): 0
- TEAE Hyperglycaemia, Frequency (200 mg QW): 1 (2.6%)
- TEAE Hyperglycaemia, Grade 2 (200 mg QW): 0
- TEAE Hyperglycaemia, Grade 3 (200 mg QW): 1 (2.6%)
- TEAE Hyperglycaemia, Grade 4 (200 mg QW): 0
- TEAE Hyperglycaemia, Grade 5 (200 mg QW): 0
- TEAE Hyperkalemia, Frequency (200 mg QW): 1 (2.6%)
- TEAE Hyperkalemia, Grade 2 (200 mg QW): 0
- TEAE Hyperkalemia, Grade 3 (200 mg QW): 0
- TEAE Hyperkalemia, Grade 4 (200 mg QW): 0
- TEAE Hyperkalemia, Grade 5 (200 mg QW): 0
- TEAE Hypocalcaemia, Frequency (200 mg QW): 0
- TEAE Hypocalcaemia, Grade 2 (200 mg QW): 0
- TEAE Hypocalcaemia, Grade 3 (200 mg QW): 0
- TEAE Hypocalcaemia, Grade 4 (200 mg QW): 0
- TEAE Hypocalcaemia, Grade 5 (200 mg QW): 0
- TEAE Hypokalaemia, Frequency (200 mg QW): 5 (12.8%)
- TEAE Hypokalaemia, Grade 2 (200 mg QW): 2 (5.1%)
- TEAE Hypokalaemia, Grade 3 (200 mg QW): 0
- TEAE Hypokalaemia, Grade 4 (200 mg QW): 0
- TEAE Hypokalaemia, Grade 5 (200 mg QW): 0
- TEAE Hyponatraemia, Frequency (200 mg QW): 7 (17.9%)
- TEAE Hyponatraemia, Grade 2 (200 mg QW): 2 (5.1%)
- TEAE Hyponatraemia, Grade 3 (200 mg QW): 2 (5.1%)
- TEAE Hyponatraemia, Grade 4 (200 mg QW): 0
- TEAE Hyponatraemia, Grade 5 (200 mg QW): 0
- TEAE LFT Abnormal, Frequency (200 mg QW): 2 (5.1%)
- TEAE LFT Abnormal, Grade 2 (200 mg QW): 0
- TEAE LFT Abnormal, Grade 3 (200 mg QW): 0
